# Experimental data: patent publication US20150231134A1, “Combination Therapy using Belinostat and Trabectedin” (Onxeo DK, Branch of Onxeo S.A., France, priority 2012, published 2015)
# Where two headings read alike, the source gives them in different places.
# Legend:
# [1] = tested on: Ovarian Cancer Cells (A2780); test: Clonogenic assay (continuous co-incubation), ovarian cancer cells A2780; type: cell-based
# Experimental: (§1) The effects of the combination of belinostat and trabectedin were studied in clonogenic assays. The clonogenic assay assesses anti-clonogenic activity of tumour cells. The “target” in clonogenic assay is all biochemical and molecular elements or alterations characteristic of tumour cells rather than specific single targets.
# (§2) Cells were grown for at least 1 week after thawing in standard media to obtain a sub-confluent culture. The 3.3% agar was boiled for at least 60 minutes in a water bath on an electrical heating plate (30 mL PBS+990 mg Bacto agar). The 90 mL growth medium (RPMI-1640+10% FCS) was heated in a water bath at 37° C. Cells were centrifuged in 50 mL centrifuge tubes at 1200 rpm for 5 minutes at room temperature.
# (§3) Drug (belinostat or trabectedin) was dissolved and diluted with growth medium or DMSO to a concentration of […] the final concentration.
# (§4) Cells were suspended in 7 mL growth medium using a 1 mL syringe and an 18 gauge needle by pumping the solution up and down 15 times. Cells were stained with Nigrosin (0.3 mL cells+0.3 mL 0.1% Nigrosin in PBS), and counted after 8 minutes using a Fuchs-Rosenthal counting chamber.
# (§5) Then, 10 mL agar and 90 mL growth medium was mixed (0.33%) and heated in a water bath at 37° C. 0.35 mL cell suspension was transferred to 10 mL conical centrifuge tubes using a dispenser. 35 μL drug (belinostat or trabectedin) was added. 3.15 mL agar/medium was added to each tube (maximum 8 tubes at the time).
# (§6) For each belinostat combination tested series of 7 titrations corresponding to approximately 30, 40, 50, 60, 70, 80, 90% inhibition was tested as mono-therapy and in combination.
# (§7) The Combination Index (CI) provides a measure of the interaction: A CI value of less than 1 indicates synergy, a CI value of 1 indicates an additive effect, and a CI value of greater than 1 indicates antagonism.
# Sarcoma Cells (MesSa) = test: Clonogenic assay (continuous co-incubation), sarcoma cells MesSa; type: cell-based, human
# Experimental: as §1, §2, §3, §4, §5, §6, §7
# [2] = tested on: Osteocarcinoma Cells (Saos-2); test: Clonogenic assay (continuous co-incubation), osteocarcinoma cells Saos-2; type: cell-based
# Experimental: as §1, §2, §3, §4, §5, §6, §7
# [3] = tested on: MesSa human sarcoma xenograft; type: in vivo
# Experimental: The xenograft model used the MesSa cell line (ATCC: CRL-1976 human sarcoma cells) (in vitro cell passage number 67 from frozen stock (number 65) on day 5). Tumour cells (1×10^7) (trypsinated) (100 μL in 100 μL matrigel) were injected subcutaneously (s.c.) into the right flank of each mouse, with one node per mouse. The time from cell dilution to the end of injection was 24 minutes. Each mouse was anaesthetised with Hypnorm/Dormicum subcutaneously (s.c.) or isofluran (by inhalation) when the tumour cells were injected.
# Four groups, each of 12 mice, were treated with vehicle, belinostat only, trabectedin only, or both belinostat and trabectedin, for three weeks, as summarised in the following table. On days that belinostat was administered, it was administered twice, with a 3 hour interval. On days that both belinostat and trabectedin were administered, the trabectedin was administered between the two belinostat administrations.
# Mice were enrolled in treatment groups following confirmation of xenograft take. Both tumour diameter and body weight were measured on days: 0, 3, 7, 10, 14, 17, and 21. Animals were sacrificed (by cervical dislocation) on day 21. Tumour weight was measured on day 21 (following sacrifice).
# “T/C%” denotes tumour weight following treatment as a percent of control, using Mann-Whitney statistical analysis. The results (median tumour volume) are also illustrated in FIG. 4.
# “T/C%” denotes tumour weight following treatment as a percent of control, using Mann-Whitney statistical analysis. The results (median tumour weight) are also illustrated in FIG. 5.
# soft-tissue sarcoma = settings: patients with soft-tissue sarcoma, pivotal clinical trial; cited from earlier work
# [4] = physiological pH; cited from earlier work
# [5] = day 0, trabectedin 0.1 mg/kg i.v. once, days 0, 3, 7, 10
# [6] = day 4, trabectedin 0.1 mg/kg i.v. once, days 0, 3, 7, 10
# [7] = day 7, trabectedin 0.1 mg/kg i.v. once, days 0, 3, 7, 10
# [8] = day 10, trabectedin 0.1 mg/kg i.v. once, days 0, 3, 7, 10
# [9] = day 14, trabectedin 0.1 mg/kg i.v. once, days 0, 3, 7, 10
# [10] = day 17, trabectedin 0.1 mg/kg i.v. once, days 0, 3, 7, 10
# [11] = day 0, belinostat 40 mg/kg i.p. twice daily, days 0-4, 7-11, 14-18
# [12] = day 4, belinostat 40 mg/kg i.p. twice daily, days 0-4, 7-11, 14-18
# [13] = day 7, belinostat 40 mg/kg i.p. twice daily, days 0-4, 7-11, 14-18
# [14] = day 10, belinostat 40 mg/kg i.p. twice daily, days 0-4, 7-11, 14-18
# [15] = day 14, belinostat 40 mg/kg i.p. twice daily, days 0-4, 7-11, 14-18
# [16] = day 17, belinostat 40 mg/kg i.p. twice daily, days 0-4, 7-11, 14-18
smiles,measurement,setting,value
"COc1cc2c(cc1O)CCN[C@]21CS[C@@H]2c3c(OC(C)=O)c(C)c4c(c3[C@H](COC1=O)N1[C@@H]2[C@H]2c3c(cc(C)c(OC)c3O)C[C@@H]([C@@H]1O)N2C)OCO4 (relative stereo) [Trabectedin, spiro[6,16-(epithiopropanoxymethano)-7,13-imino-12H-1,3-dioxolo[7,8]isoquino[3,2-b][3]benzazocine-20,1′(2′H)-isoquinolin]-19-one, 5-(acetyloxy)-3′,4′,6,6a,7,13,14,16-octahydro-6′,8,14-trihydroxy-7′,9-dimethoxy-4,10,23-trimethyl-, [6R-(6α,6aβ,7β,13β,14β,16α,20R*)]]",Trabectedin Alone (% survival),[1]; trabectedin 0.66 nM,75.33%
same,Trabectedin Alone (% survival),[1]; trabectedin 0.73 nM,62.12%
same,Trabectedin Alone (% survival),[1]; trabectedin 0.80 nM,49.62%
same,Trabectedin Alone (% survival),[1]; trabectedin 0.84 nM,44.20%
same,Trabectedin Alone (% survival),[1]; trabectedin 0.88 nM,44.06%
same,Trabectedin Alone (% survival),[1]; trabectedin 0.92 nM,36.20%
same,Trabectedin Alone (% survival),[1]; trabectedin 0.96 nM,28.69%
same,Trabectedin Alone (% survival),Sarcoma Cells (MesSa); trabectedin 0.20 nM,86.17%
same,Trabectedin Alone (% survival),Sarcoma Cells (MesSa); trabectedin 0.46 nM,87.51%
same,Trabectedin Alone (% survival),Sarcoma Cells (MesSa); trabectedin 0.64 nM,81.84%
same,Trabectedin Alone (% survival),Sarcoma Cells (MesSa); trabectedin 0.75 nM,67.10%
same,Trabectedin Alone (% survival),Sarcoma Cells (MesSa); trabectedin 0.86 nM,42.38%
same,Trabectedin Alone (% survival),Sarcoma Cells (MesSa); trabectedin 0.97 nM,33.98%
same,Trabectedin Alone (% survival),Sarcoma Cells (MesSa); trabectedin 1.1 nM,26.55%
same,Trabectedin Alone (% survival),[2]; trabectedin 0.005 nM,79.99%
same,Trabectedin Alone (% survival),[2]; trabectedin 0.010 nM,77.74%
same,Trabectedin Alone (% survival),[2]; trabectedin 0.09 nM,74.94%
same,Trabectedin Alone (% survival),[2]; trabectedin 0.13 nM,69.14%
same,Trabectedin Alone (% survival),[2]; trabectedin 0.17 nM,60.61%
same,Trabectedin Alone (% survival),[2]; trabectedin 0.21 nM,65.08%
same,Trabectedin Alone (% survival),[2]; trabectedin 0.26 nM,49.99%
same,"Median Tumour Volume, Trabectedin Only",[3]; [5],87 mm^3
same,"T/C % (tumour volume), Trabectedin Only",[3]; [5],100%
same,"Median Tumour Volume, Trabectedin Only",[3]; [6],87 mm^3
same,"T/C % (tumour volume), Trabectedin Only",[3]; [6],100%
same,"Median Tumour Volume, Trabectedin Only",[3]; [7],57 mm^3
same,"T/C % (tumour volume), Trabectedin Only",[3]; [7],50%
same,"Median Tumour Volume, Trabectedin Only",[3]; [8],65 mm^3
same,"T/C % (tumour volume), Trabectedin Only",[3]; [8],29%
same,"Median Tumour Volume, Trabectedin Only",[3]; [9],76 mm^3
same,"T/C % (tumour volume), Trabectedin Only",[3]; [9],31%
same,"Median Tumour Volume, Trabectedin Only",[3]; [10],134 mm^3
same,"T/C % (tumour volume), Trabectedin Only",[3]; [10],30%
same,"Median Tumour Volume, Trabectedin Only","[3]; day 21, trabectedin 0.1 mg/kg i.v. once, days 0, 3, 7, 10",167 mm^3
same,"T/C % (tumour volume), Trabectedin Only","[3]; day 21, trabectedin 0.1 mg/kg i.v. once, days 0, 3, 7, 10, p=0.01",25%
same,"T/C % (tumour weight), Trabectedin Alone","[3]; day 21, trabectedin 0.1 mg/kg i.v. once, days 0, 3, 7, 10, p=0.027",30%
same,reduction in growth (tumour volume),"[3]; day 21, trabectedin 0.1 mg/kg, once daily, i.v., days 0, 3, 7, 10, p=0.01",75%
same,reduction in growth (tumour weight),"[3]; day 21, trabectedin 0.1 mg/kg, once daily, i.v., days 0, 3, 7, 10, p=0.027",70%
same,tumour growth delay (in words),"[3]; trabectedin 0.1 mg/kg, once daily, i.v., days 0, 3, 7, 10 of a 3 week cycle",significant tumour growth delay
same,time-to-tumour-progression (TTP),soft-tissue sarcoma,3.9 months
"O=C(/C=C/c1cccc(S(=O)(=O)Nc2ccccc2)c1)NO [Belinostat, (E)-N-hydroxy-3-(3-phenylsulfamoyl-phenyl)-acrylamide]",Belinostat Alone (% survival),[1]; belinostat 0.04 μM,97.74%
same,Belinostat Alone (% survival),[1]; belinostat 0.36 μM,82.64%
same,Belinostat Alone (% survival),[1]; belinostat 0.47 μM,65.30%
same,Belinostat Alone (% survival),[1]; belinostat 0.56 μM,31.60%
same,Belinostat Alone (% survival),[1]; belinostat 0.63 μM,15.82%
same,Belinostat Alone (% survival),[1]; belinostat 0.68 μM,7.19%
same,Belinostat Alone (% survival),[1]; belinostat 0.73 μM,2.42%
same,Belinostat Alone (% survival),Sarcoma Cells (MesSa); belinostat 0.27 μM,88.48%
same,Belinostat Alone (% survival),Sarcoma Cells (MesSa); belinostat 0.37 μM,68.82%
same,Belinostat Alone (% survival),Sarcoma Cells (MesSa); belinostat 0.48 μM,57.06%
same,Belinostat Alone (% survival),Sarcoma Cells (MesSa); belinostat 0.57 μM,42.92%
same,Belinostat Alone (% survival),Sarcoma Cells (MesSa); belinostat 0.66 μM,37.33%
same,Belinostat Alone (% survival),Sarcoma Cells (MesSa); belinostat 0.80 μM,17.90%
same,Belinostat Alone (% survival),Sarcoma Cells (MesSa); belinostat 1.0 μM,2.75%
same,Belinostat Alone (% survival),[2]; belinostat 0.065 μM,86.96%
same,Belinostat Alone (% survival),[2]; belinostat 0.10 μM,66.47%
same,Belinostat Alone (% survival),[2]; belinostat 0.115 μM,69.29%
same,Belinostat Alone (% survival),[2]; belinostat 0.13 μM,74.52%
same,Belinostat Alone (% survival),[2]; belinostat 0.145 μM,45.50%
same,Belinostat Alone (% survival),[2]; belinostat 0.19 μM,38.34%
same,Belinostat Alone (% survival),[2]; belinostat 0.225 μM,30.59%
same,tumour growth delay (in words),"[3]; belinostat 40 mg/kg, twice daily, i.p., 5 days per week for 3 weeks",some but not significant tumour growth delay
same,"Median Tumour Volume, Belinostat Only",[3]; [11],65 mm^3
same,"T/C % (tumour volume), Belinostat Only",[3]; [11],75%
same,"Median Tumour Volume, Belinostat Only",[3]; [12],71 mm^3
same,"T/C % (tumour volume), Belinostat Only",[3]; [12],81%
same,"Median Tumour Volume, Belinostat Only",[3]; [13],76 mm^3
same,"T/C % (tumour volume), Belinostat Only",[3]; [13],67%
same,"Median Tumour Volume, Belinostat Only",[3]; [14],87 mm^3
same,"T/C % (tumour volume), Belinostat Only",[3]; [14],39%
same,"Median Tumour Volume, Belinostat Only",[3]; [15],144 mm^3
same,"T/C % (tumour volume), Belinostat Only",[3]; [15],59%
same,"Median Tumour Volume, Belinostat Only",[3]; [16],295 mm^3
same,"T/C % (tumour volume), Belinostat Only",[3]; [16],66%
same,"Median Tumour Volume, Belinostat Only","[3]; day 21, belinostat 40 mg/kg i.p. twice daily, days 0-4, 7-11, 14-18",449 mm^3
same,"T/C % (tumour volume), Belinostat Only","[3]; day 21, belinostat 40 mg/kg i.p. twice daily, days 0-4, 7-11, 14-18, p=0.10",67%
same,"T/C % (tumour weight), Belinostat Alone","[3]; day 21, belinostat 40 mg/kg i.p. twice daily, days 0-4, 7-11, 14-18, p=0.180",77%
same,reduction in growth (tumour volume),"[3]; day 21, belinostat 40 mg/kg, twice daily, i.p., 5 days per week for 3 weeks, p=0.10",33%
same,reduction in growth (tumour weight),"[3]; day 21, belinostat 40 mg/kg, twice daily, i.p., 5 days per week for 3 weeks, p=0.180",23%
same,solubility in water,[4],sparingly soluble
